The target in test [1] is T1, Mcl-1 (Homo sapiens, UniProt Q07820). The settings on record: versus Bcl-2, Bcl-xL, Bcl-w; cited from earlier work.
Target sequence in this assay (Q07820 whole entry, species assumed): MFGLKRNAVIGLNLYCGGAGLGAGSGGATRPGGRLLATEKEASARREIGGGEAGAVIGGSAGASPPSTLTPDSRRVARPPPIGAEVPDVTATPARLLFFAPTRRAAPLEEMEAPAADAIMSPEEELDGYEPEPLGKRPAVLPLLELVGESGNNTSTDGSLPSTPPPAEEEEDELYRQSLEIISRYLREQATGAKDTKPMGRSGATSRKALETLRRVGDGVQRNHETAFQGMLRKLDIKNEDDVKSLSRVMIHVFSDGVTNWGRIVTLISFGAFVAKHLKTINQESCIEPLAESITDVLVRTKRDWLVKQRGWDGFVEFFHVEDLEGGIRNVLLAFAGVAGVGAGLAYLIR
Test [2] deals with T2, A1 (Homo sapiens, UniProt Q16548).
T2 sequence (Q16548 1-175): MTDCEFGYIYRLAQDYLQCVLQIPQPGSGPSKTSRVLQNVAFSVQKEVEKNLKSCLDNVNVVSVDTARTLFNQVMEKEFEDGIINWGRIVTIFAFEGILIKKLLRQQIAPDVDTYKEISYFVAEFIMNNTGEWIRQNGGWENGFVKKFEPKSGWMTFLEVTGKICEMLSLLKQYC
The settings on record: versus Bcl-2, Bcl-xL, Bcl-w; cited from earlier work.

For test [3], the target named is T1, Mcl-1. Briefly: Fluorescence polarization (FP)-based binding assay, Mcl-1. The settings on record: FP saturation, 2 nM probe, increasing protein concentrations; read-out: Kd of fluorescent probe to Mcl-1. In general terms: Polarisation of emitted light reports the rotation of a fluorescent probe.
Target sequence in this assay (Q07820 whole entry): as the sequence (Q07820 whole entry, species assumed) above

Data on three compounds can be found in patent US9096625B2, “BCL-2/BCL-XL inhibitors and therapeutic methods using the same” (THE REGENTS OF THE UNIVERSITY OF MICHIGAN, priority 2013, dated 2015).

What is called Kd is the free concentration of one partner at which half of the binding sites on the other are occupied at equilibrium, for simple one-to-one binding.

Consider `CC1(C)CCC(c2ccc(Cl)cc2)=C(CN2CCN(c3ccc(C(=O)NS(=O)(=O)c4ccc(N[C@H](CCN5CCOCC5)CSc5ccccc5)c(S(=O)(=O)C(F)(F)F)c4)cc3)CC2)C1` [ABT-263], for which the “specificity over Mcl-1” value in test [1] was “high specificity”. Moreover, in test [2], the “specificity over A1” value is given as “high specificity”. As to `CN(C)CC[C@H](CSc1ccccc1)Nc1ccc(S(=O)(=O)NC(=O)c2ccc(N3CCN(Cc4ccccc4-c4ccc(Cl)cc4)CC3)cc2)cc1[N+](=O)[O-]` [ABT-737], the “specificity over Mcl-1” value in test [1] was “high specificity”. Besides, the “specificity over A1” value in test [2] is listed as “high specificity”. “Flu-BID: homemade fluorescein labeled BID (79-99) peptide, fluorescent probe for Mcl-1 FP assay”: the dissociation constant Kd in test [3] is 6.8 ± 1.5 nM.
